Calls of active or inactive are those of the source.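 Rule for the calls: active = compounds giving half or more protection of infected cells from virus-caused growth loss, again on retest; inactive = the rest.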 Where a SMILES comes first, the peptide text is derived from it. [ ]: non-standard residue; d: D form. Ac5c = NC1(C(=O)O)CCCC1
Tested on: CEM cells HIV-1 protection, formazan growth assay
Assay: NCI AIDS Antiviral Assay
Conditions: for IC50: measured here: growth of uninfected CEM cells
In short: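 Soluble formazan readout of cell growth; CEM cells ± HIV-1; 5 drug concs. ≥50% protection → retest; ≥50% again = moderately active; reproducible 100% = confirmed active.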

Compound	EC50	IC50	outcome
CCC(NC(C)c1ccccc1)C(=O)c1ccc(OCc2ccccc2)c(OCc2ccccc2)c1 (stereo unspecified)	> 200 µM	> 200 µM	
S=C(NC1=NCC(CN2CCN(c3ccccc3)CC2)O1)Nc1ccccc1 (stereo unspecified)	> 200 µM	45.7 µM	
CN(C)c1ccc(SSc2ccc(N(C)C)cc2)cc1	> 200 µM	14.1 µM	
CCNC1CC(C(C)(C)NCC)CC=C1C (stereo unspecified)	> 224 µM	> 224 µM	
O=c1[nH]c(=O)n(C2CC(F)C(CO)O2)cc1C(OCC(F)(F)F)OCC(F)(F)F (stereo unspecified)	37.2 µM	195 µM	
CC(=O)NC(C=O)C(O[C@H](C)C(=O)NC(C)C(=O)NC(CCC(N)=O)C(=O)OCc1ccccc1)C(O)C(O)COC(=O)CCCCCNc1cccc2[nH]c3ccccc3c(=O)c12 (stereo partly specified)	> 204 µM	126 µM	
COC(=O)C([C@H]1CC[C@H](OCc2ccccc2)[C@@]1(O)COCc1ccccc1)C(C)(O)CCc1ccccc1 (stereo partly specified)			inactive
CC(=O)OCC1OC(n2c(-c3ccccc3)c(C)c(C)c(C#N)c2=S)C(OC(C)=O)C(OC(C)=O)C1OC(C)=O (stereo unspecified)	> 100 µM	> 100 µM	
NC(CC1=CS(=O)(=O)c2ccc(Cl)cc21)C(=O)O (stereo unspecified)	> 200 µM	> 200 µM	
CCCC(=O)NC(Nc1ccc(S(=O)(=O)Nc2ccc(OC)nn2)cc1)(C(F)(F)F)C(F)(F)F	> 200 µM	> 200 µM	
CN(C)c1nc2sc3c(c2c(=O)o1)CCCC3	> 200 µM	51.3 µM	
CCOC(=O)Cc1nc2c(=O)[nH]cnc2n1C1OC(COC(C)=O)C(OC(C)=O)C1OC(C)=O (stereo unspecified)	> 200 µM	> 200 µM	
CN(C)Cc1cc(/C=C/C(=O)c2ccc(Br)cc2)cc(CN(C)C)c1O	> 200 µM	10.5 µM	
NC1=NN(c2ccccc2)C(=O)C1C(=O)CCC(=O)Nc1cccc(C(F)(F)F)c1 (stereo unspecified)	> 427 µM	407 µM	
O=C1CCN(CCC(F)(F)C(F)(F)C(F)(F)C(F)(F)F)C(=S)N1	> 26.3 µM	> 26.3 µM	
CCCCNc1nc(NC2OCC(OC(C)=O)C(OC(C)=O)C2OC(C)=O)c(N=O)c(=O)n1C (stereo unspecified)	> 200 µM	> 200 µM	
Cc1ccc2[nH]c(=O)c(C(C#N)c3ccccc3)nc2c1 (stereo unspecified)			inactive
O=S1(=O)CC2OC(c3ccccc3)OC2C1 (stereo unspecified)	> 537 µM	> 537 µM	
C[C@H]1C[C@H]2[C@@H]3CCC4=CC(=O)C=C[C@]4(C)[C@@]3(F)[C@@H](O)C[C@]2(C)C1=O			inactive
CCOC(=O)C(=O)/C(=C/N1CC(=O)NC1=S)C(=O)OCC	> 200 µM	> 200 µM	
O=C1c2ccccc2C(=O)N1CCSCC(CO)SCCN1C(=O)c2ccccc2C1=O (stereo unspecified)	191 µM	> 200 µM	

Compound	EC50	IC50	outcome
COc1ccc(-c2onc3ccc(Br)cc23)cc1	> 23.4 µM	> 23.4 µM	
CCN1CN(c2ccccc2)C2(CCN(CC3COc4ccccc4O3)CC2)C1=O (stereo unspecified)	> 200 µM	115 µM	
CC(=O)C1C(=O)C(=O)N(c2cccc([N+](=O)[O-])c2)C1=O (stereo unspecified)	> 200 µM	> 200 µM	
CCCCN1C(=O)C(=O)N(c2ccccc2C(F)(F)F)C1=O	> 200 µM	158 µM	
COC(=O)CC(c1ccccc1)C1(c2ccccc2)SCCS1 (stereo unspecified)	> 7.94 µM	> 7.94 µM	
O=C(c1cccc([N+](=O)[O-])c1)c1c(O)c2ccccc2oc1=O	> 200 µM	95.5 µM	
CCCCCCCCCCCCN1C(=O)c2ccccc2[Se]1=O (stereo unspecified)	> 2.75 µM	> 2.75 µM	
O=C1OC(c2ccccc2)=N/C1=C\c1ccc(Oc2ccc(Cl)c(Cl)c2)cc1	> 2.51 µM	> 2.51 µM	
COC(=O)C1(NC(=O)C(C)NC(=O)C(CCCCN)NC(=O)C(CC(C)C)NC(C)=O)CCCC1 (stereo unspecified) (Ac-LKA[Ac5c]-OMe; configuration not given here)	> 200 µM	> 200 µM	
Cc1cc(=O)oc2c(C)c3oc(CBr)cc3cc12	> 200 µM	0.447 µM	
O=C1O/C(=C2\OCc3ccccc32)c2ccccc21	> 151 µM	> 151 µM	
O=c1c2ccccc2nc(-c2ccccc2)n1NC(=S)Nc1ccccc1	> 135 µM	112 µM	
NCCS(=O)(=O)O	> 200 µM	> 200 µM	
O=C1N=C2SC(=S)NC(=S)N2NC12c1ccccc1-c1ccccc12	> 200 µM	32.4 µM	
COc1ccccc1NC(=O)/C(=C/C1CC(=O)NC1=S)C(C)=O (stereo unspecified)	> 200 µM	> 200 µM	
NC(=O)c1ccc[c]([Sb](=[O])([OH])[OH])c1	10.5 µM	398 µM	
O=NN1CN2CN(C1)CN(N=O)C2	> 200 µM	30.9 µM	
CCCc1cc(-c2ccc(-c3cc(CCC)c(C=O)[nH]3)s2)[nH]c1C=O	> 5.62 µM	1.62 µM	
N[C@H]1C2C3CC4C5CC(C42)C1(c1ccccc1)C53 (stereo partly specified)	> 661 µM	53.7 µM	
COC(=O)/C(=C(\C)C=O)N1C(=O)C(NC(=O)c2ccccc2)C1SSc1nc2ccccc2s1 (stereo unspecified)	> 200 µM	12.9 µM	
CC(C)NC(=O)OCCN=C1c2ccccc2C(Br)C(Br)c2ccccc21 (stereo unspecified)	> 200 µM	0.575 µM	

Reference: PubChem BioAssay AID179 (DTP/NCI, 2004)
